Molecules are shown by their SMILES. Several values for one entry are separate records, joined by “and”; a condition that tells them apart may be missing. Equal values may be shown once.

These results are taken from the supplement of paper PMC4862054.

Common to all, as to conditions: incubation time: 72 h
The test system of experiment [1] is DU-4475. Nature of the experiment: normalised response (% of control), CellTiter-Glo; higher = more viable cells (100 = DMSO, 0 = benzethonium chloride kill control). Put shortly:
(§1)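 Breast cancer cell lines in 20 µl suspension were added to 384-well plates containing compound at 5 concentrations, spaced in 10-fold steps across a 10,000-fold range chosen for each compound, and incubated for 72 h. CellTox Green fluorescence was read at 485/520 nm, followed by CellTiter-Glo luminescence after 10 min at room temperature. Signals on each plate were normalised so that 0.1 % DMSO equals 100 and a positive kill control equals 0. Every value in the table is the normalised signal at one concentration of the series.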

Experiment [2] concerns MDA-MB-453. The experiment is described as above. In a few lines: as §1
The subject of experiment [3] is CAL-51. The description is as above. Put shortly:
as §1

A further experiment relates to MFM-223. Described as above. Put shortly: as §1
The next experiment relates to BT-474. Described as above. Put shortly: as §1
The subject of another experiment is SK-BR-3. The experiment is described as above. Put shortly:
as §1

A further experiment has as its system BT-549. The description is as above. Put shortly: as §1
The next experiment relates to HCC1937. Described as above. Put shortly: as §1
Experiment [4] relates to HDQ-P1. The experiment is described as above. Put shortly:
as §1

For the next experiment, the system named is Hs578T. Described as above. Put shortly: as §1
Experiment [5] deals with DU-4475. Described as above. Put shortly:
as §1
This is another data set of the same source.

In a further experiment the test system is HCC1599. The description is as above. Put shortly:
as §1

In the next experiment the test system is MDA-MB-468. The description is as above. Put shortly:
as §1

Experiment [6] concerns MDA-MB-453. The experiment can be described thus: normalised viability (% of control), CellTiter-Blue; higher = more viable cells (about 100 = DMSO control). As to the method: (§2)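 DSRT, CellTiter-Blue viability, 72 h incubation. Signal is normalised to DMSO and benzethonium chloride controls. Value is the normalised response at dose 9.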
Experiment [7] relates to CAL-51. Described as above. As to the method:
as §2

The next experiment deals with CAL-85-1. The description is as above. The procedure: as §2
Experiment [8] concerns HDQ-P1. Described as above. As to the method:
as §2

Experiment [9] concerns DU-4475. The experiment is described as above. The procedure:
as §2

Another experiment concerns CAL-148. The description is as above. The procedure: as §2

`Cc1c(N)nc([C@H](CC(N)=O)NC[C@H](N)C(N)=O)nc1C(=O)N[C@H](C(=O)N[C@H](C)[C@@H](O)[C@H](C)C(=O)N[C@H](C(=O)NCCc1nc(-c2nc(C(=O)NCCC[S+](C)C)cs2)cs1)[C@@H](C)O)[C@@H](OC1OC(CO)C(O)C(O)C1OC1OC(CO)C(O)C(OC(N)=O)C1O)c1cnc[nH]1` (some centres undefined) [Bleomycin] (1000 nM): the normalised response with DU-4475 [1] turned out to be 92.1%.
For `Cc1c(N)nc([C@H](CC(N)=O)NC[C@H](N)C(N)=O)nc1C(=O)N[C@H](C(=O)N[C@H](C)[C@@H](O)[C@H](C)C(=O)N[C@H](C(=O)NCCc1nc(-c2nc(C(=O)NCCC[S+](C)C)cs2)cs1)[C@@H](C)O)[C@@H](OC1OC(CO)C(O)C(O)C1OC1OC(CO)C(O)C(OC(N)=O)C1O)c1cnc[nH]1` (some centres undefined) [Bleomycin] (10000 nM), the normalised response in the experiment on MDA-MB-453 [2] stood at 124%; in the experiment with CAL-51 [3], 37.9%; in the experiment on MFM-223, 108%; with BT-474, 65.3%; in the experiment on SK-BR-3, 67.4%; in the experiment on BT-549, 32.6%. The normalised response with HCC1937 was determined as 45.8%; in the experiment on HDQ-P1 [4] it was 78.5%; in the experiment on Hs578T it was 69.6%; with DU-4475 [5] it was 78.9%; in the experiment on HCC1599 it was 88.7%; in the experiment on MDA-MB-468, 48.8%. The normalised viability with MDA-MB-453 [6] came to 94.2%; in the experiment with CAL-51 [7], 51.7%; with CAL-85-1, 96.9%; with HDQ-P1 [8], 64.7%; in the experiment with DU-4475 [9], 98.7%; in the experiment on CAL-148, 82.8%.
Molecule `Cc1cc2c(F)c(Oc3ncnn4cc(OC[C@@H](C)O)c(C)c34)ccc2[nH]1` [Brivanib] (100 nM) displayed a normalised response in the experiment on DU-4475 [1] of 101%.
Turning to `Cc1cc2c(F)c(Oc3ncnn4cc(OC[C@@H](C)O)c(C)c34)ccc2[nH]1` [Brivanib] (1000 nM), the normalised response in the experiment with MDA-MB-453 [2] was determined as 108%; in the experiment with CAL-51 [3] it was 83%; in the experiment on MFM-223, 110%; in the experiment on BT-474 it was 108%; in the experiment with SK-BR-3 it was 113%; in the experiment on BT-549 it was 98.3%. In addition, the normalised response was found to be 95.1% with HCC1937; 97.7% in the experiment with HDQ-P1 [4]; 101% with Hs578T; 103% with DU-4475 [5]; 104% with HCC1599; 107% in the experiment with MDA-MB-468. Moreover, the normalised viability in the experiment on MDA-MB-453 [6] is 99.1%; in the experiment on CAL-51 [7], 101%; in the experiment on CAL-85-1, 86.9%; in the experiment with HDQ-P1 [8], 117%; in the experiment on DU-4475 [9], 107%; with CAL-148 it was 86.8%.
On to `CCCCCOC(=O)Nc1nc(=O)n([C@@H]2O[C@H](C)[C@@H](O)[C@H]2O)cc1F` [Capecitabine] (1000 nM), for which the normalised response with DU-4475 [1] is 98.6%.
`CCCCCOC(=O)Nc1nc(=O)n([C@@H]2O[C@H](C)[C@@H](O)[C@H]2O)cc1F` [Capecitabine] (10000 nM): the normalised response in the experiment with MDA-MB-453 [2] is 103%; in the experiment with CAL-51 [3], 107%; with MFM-223, 102%; in the experiment with BT-474 it was 95.3%; in the experiment with SK-BR-3 it was 74.5%; with BT-549 it was 108%. In addition, the normalised response with HCC1937 came out at 107%; with HDQ-P1 [4], 81.3%; in the experiment on Hs578T it was 105%; in the experiment with DU-4475 [5], 90.7%; in the experiment with HCC1599, 90.4%; in the experiment with MDA-MB-468, 104%. The normalised viability in the experiment on CAL-51 [7] was 88.9% and 91.6%; in the experiment on HDQ-P1 [8] it was 105% and 87.3%; in the experiment on DU-4475 [9] it was 88.5% and 90.4%; in the experiment with CAL-148, 75.5% and 97.8%.
Turning to `CC(C)C[C@H](NC(=O)[C@H](CCc1ccccc1)NC(=O)CN1CCOCC1)C(=O)N[C@@H](Cc1ccccc1)C(=O)N[C@@H](CC(C)C)C(=O)[C@@]1(C)CO1` [Carfilzomib] (100 nM), the normalised response in the experiment on DU-4475 [1] came to 14.6%.
With `CC(C)C[C@H](NC(=O)[C@H](CCc1ccccc1)NC(=O)CN1CCOCC1)C(=O)N[C@@H](Cc1ccccc1)C(=O)N[C@@H](CC(C)C)C(=O)[C@@]1(C)CO1` [Carfilzomib] (1000 nM), the normalised response in the experiment with MDA-MB-453 [2] amounted to 14.3%; in the experiment on CAL-51 [3], 1.12%; with MFM-223, 6.19%; with BT-474, 6.38%; in the experiment on SK-BR-3, 2.94%; in the experiment on BT-549, 2.23%. Further, the normalised response worked out at 2.47% in the experiment with HCC1937; 0.05% in the experiment on HDQ-P1 [4]; 0.58% with Hs578T; 7.95% with DU-4475 [5]; 8.99% with HCC1599; 1.29% in the experiment on MDA-MB-468. The normalised viability with MDA-MB-453 [6] stood at 12.3%; in the experiment with CAL-51 [7], 1.6%; in the experiment on CAL-85-1, 2.67%; in the experiment with HDQ-P1 [8] it was 0.68%; in the experiment with DU-4475 [9], 2.97%; in the experiment on CAL-148, 2.83%.
